23 compounds from PubChem BioAssay AID330 (DTP/NCI, 2004) can be followed below.

Values joined by “and” are separate entries in the source; they are usually repeats but may differ in a detail not shown here. Equal values may be shown once. Inconclusive results and toxic doses are left out.

This assay concerns P388 leukemia ip, CD2F1 mice, survival T/C. Nature of the assay: NCI In Vivo Anticancer Drug Screen. Data for tumor model P388 Leukemia (intraperitoneal) in CD2F1 (CDF1) mice. As to conditions: endpoint: median survival time, higher = longer survival. In a few lines: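 Mice carrying the transplanted tumor received test compound or vehicle. Survival was recorded in each group, and the value is the treated-group measurement divided by that of the vehicle-treated control group.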

[1] abbreviates: dose: 12.5 mg/kg/injection, schedule: Q01DX005 (ip), vehicle: Klucel (hydroxypropylcellulose) (HPC).
[2] abbreviates: dose: 25.0 mg/kg/injection, schedule: Q01DX005 (ip), vehicle: Klucel (hydroxypropylcellulose) (HPC).
Where [3] appears, read: dose: 60.0 mg/kg/injection, schedule: Q01DX005 (ip), vehicle: Klucel (hydroxypropylcellulose) (HPC).
[4] abbreviates: dose: 120.0 mg/kg/injection, schedule: Q01DX005 (ip), vehicle: Klucel (hydroxypropylcellulose) (HPC).
Setting [5] is: dose: 60.0 mg/kg/injection, schedule: Q01DX005 (ip), vehicle: saline with Tween-80.
Setting [6] is: dose: 120.0 mg/kg/injection, schedule: Q01DX005 (ip), vehicle: saline with Tween-80.
Setting [7] is: dose: 240.0 mg/kg/injection, schedule: Q01DX005 (ip), vehicle: saline with Tween-80.
The mark [8] stands for this setting: dose: 100.0 mg/kg/injection, schedule: Q04DX003 (ip), vehicle: saline with Tween-80.
Setting [9] is: dose: 6.25 mg/kg/injection, schedule: Q01DX009 (ip), vehicle: Klucel (hydroxypropylcellulose) (HPC).
The mark [10] stands for this setting: dose: 12.5 mg/kg/injection, schedule: Q01DX009 (ip), vehicle: Klucel (hydroxypropylcellulose) (HPC).
[11] abbreviates: dose: 50.0 mg/kg/injection, schedule: Q01DX009 (ip), vehicle: Klucel (hydroxypropylcellulose) (HPC).
[12] abbreviates: dose: 100.0 mg/kg/injection, schedule: Q01DX009 (ip), vehicle: Klucel (hydroxypropylcellulose) (HPC).
The mark [13] stands for this setting: dose: 200.0 mg/kg/injection, schedule: Q01DX009 (ip), vehicle: Klucel (hydroxypropylcellulose) (HPC).
The mark [14] stands for this setting: dose: 50.0 mg/kg/injection, schedule: Q01DX005 (ip), vehicle: Klucel (hydroxypropylcellulose) (HPC).

As for `c1ccc(OCCC[P+](c2ccccc2)(c2ccccc2)c2ccccc2)cc1`, the T/C runs as follows: (dose: 0.7 mg/kg/injection, schedule: Q01DX010 (ip), vehicle: carboxymethylcellulose (CMC)) 120 % of control; (dose: 1.5 mg/kg/injection, schedule: Q01DX010 (ip), vehicle: carboxymethylcellulose (CMC)) 110 % of control; (dose: 3.0 mg/kg/injection, schedule: Q01DX010 (ip), vehicle: carboxymethylcellulose (CMC)) 120 % of control; (dose: 4.1 mg/kg/injection, schedule: Q01DX009 (ip), vehicle: saline sonified) 113 % of control; (dose: 6.25 mg/kg/injection, schedule: Q01DX009 (ip), vehicle: saline sonified) 118 % of control.
On to `NC(=O)c1ccnn1C1OC(CO)C(O)C1O` (centres undefined), for which the T/C reads like this: (dose: 32.0 mg/kg/injection, schedule: Q01DX002 (ip), vehicle: saline) 107 % of control and 116 % of control; (dose: 64.0 mg/kg/injection, schedule: Q01DX002 (ip), vehicle: saline) 104 % of control and 112 % of control; (dose: 128.0 mg/kg/injection, schedule: Q01DX002 (ip), vehicle: saline) 107 % of control.
As to `O=C1C=C(Cl)C(=O)C(c2ccccc2)=C1Cl`, the T/C under setting [1] is 96 % of control and the T/C under setting [2] was 91 % of control.
Regarding `CC1(C)SC(C)(c2ccco2)N(c2nccs2)C1=O` (centres undefined), the T/C runs as follows: under setting [3], 104 % of control; under setting [4], 104 % of control.
For `COC1=CC2CC(C#N)C2(OC)C=C1` (centres undefined), the T/C is, setting by setting: under setting [5], 97 % of control; under setting [6], 99 % of control; under setting [7], 98 % of control.
For the compound `O=C(Nc1cccc2ccccc12)NN1C(=O)CSC1=S`, the T/C was 90 % of control (dose: 50.0 mg/kg/injection, schedule: Q01DX009 (ip), vehicle: saline with Tween-80); 93 % of control (dose: 100.0 mg/kg/injection, schedule: Q01DX009 (ip), vehicle: saline with Tween-80); 91 % of control (dose: 200.0 mg/kg/injection, schedule: Q01DX009 (ip), vehicle: saline with Tween-80).
With `CN1C(=O)[C@@H]2N(N(C)C1=O)[C@@]1(Br)C(=O)N(C)C(=O)[C@@]21Br`, the T/C runs as follows: under setting [3], 100 % of control; under setting [4], 105 % of control; (dose: 240.0 mg/kg/injection, schedule: Q01DX005 (ip), vehicle: Klucel (hydroxypropylcellulose) (HPC)) 101 % of control.
For `N=C(N)SCC(=O)Nc1nc(NC(=O)CSC(=N)N)nc(NC(=O)CSC(=N)N)n1`, the T/C by setting is: (dose: 100.0 mg/kg/injection, schedule: Q04DX002 (ip), vehicle: saline) 101 % of control; (dose: 200.0 mg/kg/injection, schedule: Q04DX002 (ip), vehicle: saline) 99 % of control; (dose: 400.0 mg/kg/injection, schedule: Q04DX002 (ip), vehicle: saline) 100 % of control.
Take `CCNc1ccc(F)cc1[N+](=O)[O-]`: the T/C runs as follows: (dose: 50.0 mg/kg/injection, schedule: Q04DX003 (ip), vehicle: saline with Tween-80) 100 % of control; under setting [8], 100 % of control; (dose: 200.0 mg/kg/injection, schedule: Q04DX003 (ip), vehicle: saline with Tween-80) 86 % of control.
Take `CCOC(=O)c1ccc(NC(=O)Oc2ccc3c(C)cc(=O)oc3c2)cc1`: the T/C by setting is: under setting [5], 98 % of control; under setting [6], 98 % of control; under setting [7], 103 % of control.
On to `Cc1c2c(C#N)nccc2c(C)c2c1c1ccccc1n2Cc1ccccc1`, for which the T/C was 96 % of control (dose: 6.25 mg/kg/injection, schedule: Q04DX003 (ip), vehicle: distilled water + Tween-80); 90 % of control (dose: 12.5 mg/kg/injection, schedule: Q04DX003 (ip), vehicle: distilled water + Tween-80); 87 % of control (dose: 25.0 mg/kg/injection, schedule: Q04DX003 (ip), vehicle: distilled water + Tween-80); 87 % of control (dose: 50.0 mg/kg/injection, schedule: Q04DX003 (ip), vehicle: distilled water + Tween-80); 90 % of control (dose: 100.0 mg/kg/injection, schedule: Q04DX003 (ip), vehicle: distilled water + Tween-80); 91 % of control (dose: 200.0 mg/kg/injection, schedule: Q04DX003 (ip), vehicle: distilled water + Tween-80).
`O=C1C=CC2(CC=CCC2)CC1` (centres undefined): the T/C under setting [9] was 110 % of control; the T/C (dose: 12.5 mg/kg/injection, schedule: Q01DX008 (ip), vehicle: Klucel (hydroxypropylcellulose) (HPC)) was 101 % of control; the T/C under setting [10] is 108 % of control; the T/C (dose: 25.0 mg/kg/injection, schedule: Q01DX008 (ip), vehicle: Klucel (hydroxypropylcellulose) (HPC)) is 100 % of control; the T/C (dose: 25.0 mg/kg/injection, schedule: Q01DX009 (ip), vehicle: Klucel (hydroxypropylcellulose) (HPC)) is 100 % of control; the T/C under setting [11] was 121 % of control. In addition, the T/C by setting is: under setting [12], 109 % of control; under setting [13], 110 % of control.
Consider `CC1(C)CCC2(C(=O)OC3OC(CO)C(O)C(O)C3O)CCC3(C)C(=CCC4C5(C)CCC(OC6OC(CO)C(O)C(OC7OC(CO)C(O)C(O)C7O)C6O)C(C)(C)C5CCC43C)C2C1` (centres undefined), for which the T/C was 102 % of control (dose: 6.25 mg/kg/injection, schedule: Q01DX005 (ip), vehicle: Klucel (hydroxypropylcellulose) (HPC)); 98 % of control under setting [1]; 116 % of control under setting [2]; 105 % of control under setting [14].
Regarding `COc1ccc(C(=O)c2ccccc2)c(C(=O)O)c1`, the T/C by setting is: under setting [14], 101 % of control; (dose: 100.0 mg/kg/injection, schedule: Q01DX005 (ip), vehicle: Klucel (hydroxypropylcellulose) (HPC)) 97 % of control; (dose: 200.0 mg/kg/injection, schedule: Q01DX005 (ip), vehicle: Klucel (hydroxypropylcellulose) (HPC)) 104 % of control.
For the compound `COc1cc(CC2C(Cc3ccc4c(c3)OCO4)COC2CO)cc(OC)c1OC` (centres undefined), the T/C runs as follows: (dose: 6.25 mg/kg/injection, schedule: Q04DX002 (ip), vehicle: acetone) 95 % of control; (dose: 12.5 mg/kg/injection, schedule: Q04DX002 (ip), vehicle: acetone) 102 % of control; (dose: 25.0 mg/kg/injection, schedule: Q04DX002 (ip), vehicle: acetone) 98 % of control.
In the case of `CCCCS(=O)(=O)CCC(N)C(=O)O` (centres undefined), the T/C by setting is: under setting [5], 94 % of control; under setting [6], 90 % of control.
With `CC(C)c1ccc(C(CC(=O)C(C)(C)C)C(C(=O)O)c2ccc([N+](=O)[O-])cc2)cc1` (centres undefined), the T/C is, setting by setting: under setting [11], 109 % of control; under setting [12], 108 % of control.
As for `CCCCCCC(C)NN` (centres undefined), the T/C under setting [8] is 86 % of control.
For the compound `CN(C)/N=C1\C(=O)Nc2ccc(Br)cc21`, the T/C by setting is: under setting [11], 100 % of control; under setting [12], 113 % of control; under setting [13], 108 % of control.
With `CC(/C=C/C1OC(=O)C=CC1C)=C\C(C)C/C=C/C(C)=C/C(CO)C(=O)C(C)C(O)C(C)C/C(C)=C/C(=O)O` (centres undefined), the T/C is, setting by setting: (dose: 25.0 micrograms/kg/injection, schedule: Q01DX005 (ip), vehicle: other) 119 % of control; (dose: 100.0 micrograms/kg/injection, schedule: Q01DX005 (ip), vehicle: other) 153 % of control.
On to `O=C1c2cccc3cc([N+](=O)[O-])cc(c23)C(=O)N1CCN1CCCC1`, for which the T/C was 118 % of control (dose: 1.56 mg/kg/injection, schedule: Q01DX009 (ip), vehicle: saline with Tween-80) and 150 % of control (dose: 12.5 mg/kg/injection, schedule: Q01DX009 (ip), vehicle: saline with Tween-80).
As to `CCOC(=O)N(NC(=O)c1ccccc1)C(C)=O`, the T/C is, setting by setting: (dose: 12.5 mg/kg/injection, schedule: Q01DX009 (ip), vehicle: other) 111 % of control; (dose: 25.0 mg/kg/injection, schedule: Q01DX009 (ip), vehicle: other) 109 % of control; (dose: 50.0 mg/kg/injection, schedule: Q01DX009 (ip), vehicle: other) 99 % of control.
For the compound `COc1cc2c(c(OC)c1OC)-c1ccc(NCc3ccccc3)c(=O)cc1[C@@H](NC(C)=O)CC2`, the T/C by setting is: (dose: 0.78 mg/kg/injection, schedule: Q01DX009 (ip), vehicle: Klucel (hydroxypropylcellulose) (HPC)) 103 % of control and 104 % of control and 105 % of control; (dose: 1.56 mg/kg/injection, schedule: Q01DX009 (ip), vehicle: Klucel (hydroxypropylcellulose) (HPC)) 98 % of control and 101 % of control and 104 % of control; (dose: 3.12 mg/kg/injection, schedule: Q01DX009 (ip), vehicle: Klucel (hydroxypropylcellulose) (HPC)) 105 % of control and 106 % of control and 117 % of control; under setting [9], 117 % of control; under setting [10], 98 % of control and 117 % of control.
